The values below come from ChEMBL document CHEMBL1201862, “PubChem BioAssay data set” (2004).

As a reminder, the EC50 is the concentration needed to bring the measured effect to its halfway point. As usually defined, the IC50 is the midpoint of a concentration-inhibition curve. By AC50 is commonly meant the concentration at which the activity in the assay is half-maximal. In general, Ki refers to the dissociation constant of the complex between target and ligand, obtained from inhibition or displacement.

The source made the active and inactive calls.

Assay [1] addresses T1, RNA-binding protein pos-1 (Caenorhabditis elegans, UniProt G5EF15).
T1 sequence (G5EF15 whole entry): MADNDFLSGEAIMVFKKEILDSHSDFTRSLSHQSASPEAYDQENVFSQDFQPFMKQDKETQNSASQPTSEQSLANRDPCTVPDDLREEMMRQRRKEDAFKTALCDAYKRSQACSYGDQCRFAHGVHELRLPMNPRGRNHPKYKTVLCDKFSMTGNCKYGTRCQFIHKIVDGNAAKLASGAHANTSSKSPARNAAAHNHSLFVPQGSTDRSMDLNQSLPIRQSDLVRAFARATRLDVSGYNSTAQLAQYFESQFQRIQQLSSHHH
Description: inhibitors of POS-1/mex-3 RNA binding, dose response, biochemical, fluorescence polarization (AID 1964).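 Further: purified POS-1 fused to maltose binding protein made in E. coli; potency of compounds blocking POS-1 binding to fluorescent RNA.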

Assay [2] deals with T2, Zinc finger protein mex-5 (Caenorhabditis elegans, UniProt Q9XUB2).
T2 sequence (Q9XUB2 whole entry): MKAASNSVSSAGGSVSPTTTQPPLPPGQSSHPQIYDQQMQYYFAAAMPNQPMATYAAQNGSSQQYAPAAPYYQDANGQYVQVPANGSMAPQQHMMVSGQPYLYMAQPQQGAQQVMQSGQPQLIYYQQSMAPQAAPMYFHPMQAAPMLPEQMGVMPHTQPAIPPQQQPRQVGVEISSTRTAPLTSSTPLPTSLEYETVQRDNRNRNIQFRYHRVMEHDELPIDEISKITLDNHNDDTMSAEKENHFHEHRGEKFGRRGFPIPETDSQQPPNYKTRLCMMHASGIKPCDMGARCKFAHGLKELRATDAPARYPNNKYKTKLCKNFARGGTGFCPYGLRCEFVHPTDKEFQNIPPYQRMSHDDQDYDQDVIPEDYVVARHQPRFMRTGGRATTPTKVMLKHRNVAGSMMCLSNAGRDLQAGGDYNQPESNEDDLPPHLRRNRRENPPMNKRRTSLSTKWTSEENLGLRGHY
Description: MEX-5/TCR-2 RNA interaction inhibitors, dose response, biochemical, C. elegans, fluorescence polarization (AID 1960). A general note: Fluorescence polarisation rises when a labelled molecule tumbles more slowly, as on binding a larger partner.

The target of assay [3] is Beta-lactamase (Pseudomonas aeruginosa, UniProt Q79MP6).
Assay [4] concerns the target Beta-lactamase (Salmonella choleraesuis (strain SC-B67), UniProt Q5J463).
For a further assay, the target named is Beta Lactamase (Pseudomonas aeruginosa, UniProt Q932Y6). Nature of the assay: beta-lactamase reporter inhibitor potency, dose response, artefact control for TLR9-MyD88 binding inhibitor project, BLA reporter cells, FRET fluorescence (AID 588341).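 Further: cell based assay in CHO-K1 cells stably expressing beta-lactamase.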 Type of assay: cell-based.
In a further assay the test system is CHO. Nature of the assay: cytotoxicity in TLR9-MyD88 CHO cells, dose response, cytotoxicity control for TLR9-MyD88 binding inhibitor project, cell-based, luminescence (AID 588339).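 Further: CHO cells stably coexpressing TLR9 and MyD88 fusions from primary screen; compound exposure lasted 48 hours before viability readout.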 The following applies: Cricetulus griseus. Type of assay: functional, hamster.
Assay [5] concerns the target T3, High affinity choline transporter 1 (Homo sapiens, UniProt Q9GZV3).
T3 sequence (Q9GZV3 whole entry): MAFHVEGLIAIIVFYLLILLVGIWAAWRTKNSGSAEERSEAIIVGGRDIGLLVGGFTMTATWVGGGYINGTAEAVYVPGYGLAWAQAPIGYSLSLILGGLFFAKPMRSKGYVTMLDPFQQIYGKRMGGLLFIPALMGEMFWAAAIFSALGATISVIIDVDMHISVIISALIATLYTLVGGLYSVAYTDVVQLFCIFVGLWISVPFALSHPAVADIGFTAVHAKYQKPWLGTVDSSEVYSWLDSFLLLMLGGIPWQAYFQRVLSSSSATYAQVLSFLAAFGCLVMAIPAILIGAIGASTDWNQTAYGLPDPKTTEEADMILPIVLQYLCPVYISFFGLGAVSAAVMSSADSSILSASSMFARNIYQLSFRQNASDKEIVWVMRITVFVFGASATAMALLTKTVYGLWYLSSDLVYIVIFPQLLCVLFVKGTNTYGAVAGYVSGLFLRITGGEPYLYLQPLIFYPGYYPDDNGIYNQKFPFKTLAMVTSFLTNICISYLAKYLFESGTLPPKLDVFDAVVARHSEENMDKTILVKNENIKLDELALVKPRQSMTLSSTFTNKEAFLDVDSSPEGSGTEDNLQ
Nature of the assay: CHT activators, dose response, cell-based, 10-point CRC, membrane potential dye (AID 602376). Type of assay: functional.

For assay [6], the target named is Glycogen synthase kinase-3 beta (Homo sapiens, UniProt P49841). Nature of the assay: Inhibition of Human GSK-3 beta Activity Measured in Biochemical System Using Microfluidics - 2063-05_Inhibitor_Dose_DryPowder_Activity_Set2. [Related pubchem assays (depositor defined):AID2709].
Assay [7] has as its target T4, Glycogen synthase kinase-3 alpha (Homo sapiens, UniProt P49840). Description: Inhibition of Human GSK-3 alpha Activity Measured in Biochemical System Using Microfluidics - 2063-06_Inhibitor_Dose_DryPowder_Activity_Set2. [Related pubchem assays (depositor defined):AID2709].
For assay [8], the target named is Cyclin-dependent kinase 5/CDK5 activator 1 (Homo sapiens, UniProt Q00535). Description: CDK5-p25 kinase inhibitors, specificity check, dose response, selectivity assay for GSK-3 alpha inhibitor project, biochemical, microfluidic mobility shift, dry powder (AID 588430).
For assay [9], the target named is Casein kinase I isoform alpha (Homo sapiens, UniProt P48729). Type of assay: functional.
Assay [10] concerns the target Mitogen-activated protein kinase kinase kinase kinase 2 (Homo sapiens, UniProt Q12851). The class given is functional.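 Further: measured as one member of a kinome-wide kinase panel, with MAP4K2 as the panel entry.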
Assay [11] has as its target Hepatocyte growth factor receptor (Homo sapiens, UniProt P08581). Type of assay: functional.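 Further: kinase panel profiling across the kinome, with MET as the panel member.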
Assay [12] concerns the target Death-associated protein kinase 3 (Homo sapiens, UniProt O43293). Type of assay: functional.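 Further: measured as one member of a kinome-wide profiling panel.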
The next assay concerns the target Aurora kinase B (Homo sapiens, UniProt Q96GD4). The class given is functional.
For assay [13], the target named is Serine/threonine-protein kinase pim-1 (Homo sapiens, UniProt P11309). Type of assay: functional.
The target of assay [14] is Mitogen-activated protein kinase 8 (Homo sapiens, UniProt P45983). The class given is functional.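 Further: value comes from one member of a kinome-wide kinase profiling panel.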
Assay [15] addresses G protein-coupled receptor kinase 5 (Homo sapiens, UniProt P34947). Description: Navigating the Kinome. Panel member name: GPRK5. The class given is functional.
The target of assay [16] is Tyrosine-protein kinase JAK3 (Homo sapiens, UniProt P52333). Type of assay: functional.
The target in assay [17] is ALK tyrosine kinase receptor (Homo sapiens, UniProt Q9UM73). Type of assay: functional.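 Further: ALK tested as one member of a kinase panel screen.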
The target of assay [18] is Tyrosine-protein kinase Fyn (Homo sapiens, UniProt P06241). The class given is functional.
In assay [19] the target is Platelet-derived growth factor receptor alpha (Homo sapiens, UniProt P16234). Nature of the assay: Navigating the Kinome. Panel member name: PDGFRA. Type of assay: functional.
Assay [20] concerns the target Dual specificity tyrosine-phosphorylation-regulated kinase 1B (Homo sapiens, UniProt Q9Y463). Nature of the assay: Navigating the Kinome. Panel member name: DYRK1B. Type of assay: functional.
The target in assay [21] is Cyclin-dependent kinase 7 (Homo sapiens, UniProt P50613). The class given is functional.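 Further: value comes from a kinome-wide kinase profiling panel in which CDK7 is one member.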
The target in assay [22] is Dual specificity protein kinase CLK4 (Homo sapiens, UniProt Q9HAZ1). Type of assay: functional.
Assay [23] concerns the target Tyrosine-protein kinase Lck (Homo sapiens, UniProt P06239). Type of assay: functional.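 Further: lck was assayed as one member of a kinase panel.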
Assay [24] has as its target Serine/threonine-protein kinase D3 (Homo sapiens, UniProt O94806). The class given is functional.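 Further: determined within a kinase panel screen, with PRKCN as the panel member.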
Assay [25] has as its target Mitogen-activated protein kinase 14 (Homo sapiens, UniProt Q16539). Type of assay: functional.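 Further: part of a kinome-wide panel, MAPK14 entry.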
A further assay concerns the target Activin receptor type-1 (Homo sapiens, UniProt Q04771). Nature of the assay: Navigating the Kinome. Panel member name: ACVR1. The class given is functional.
In assay [26] the target is Fibroblast growth factor receptor 1 (Homo sapiens, UniProt P11362). The class given is functional.
Assay [27] concerns the target T4, Glycogen synthase kinase-3 alpha. The class given is functional.
Assay [28] deals with cAMP-dependent protein kinase catalytic subunit PRKX (Homo sapiens, UniProt P51817). The class given is functional.
The target in assay [29] is Serine/threonine-protein kinase PAK 4 (Homo sapiens, UniProt O96013). Type of assay: functional.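 Further: value obtained within a kinome profiling panel in which PAK4 was one of the panel members.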
For assay [30], the target named is Leukocyte tyrosine kinase receptor (Homo sapiens, UniProt P29376). Description: Navigating the Kinome. Panel member name: LTK. Type of assay: functional.
Assay [31] has as its target Cyclin-dependent kinase 8 (Homo sapiens, UniProt P49336). Nature of the assay: Navigating the Kinome. Panel member name: CDK8. Type of assay: functional.
Assay [32] has as its target Serine/threonine-protein kinase Chk1 (Homo sapiens, UniProt O14757). The class given is functional.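 Further: measured as one member of a kinome-wide kinase profiling panel.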
Assay [33] has as its target Dual specificity tyrosine-phosphorylation-regulated kinase 1A (Homo sapiens, UniProt Q13627). The class given is functional.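 Further: measured against DYRK1A as one member of a broad kinome profiling panel.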
The target in assay [34] is Mitogen-activated protein kinase kinase kinase kinase 4 (Homo sapiens, UniProt O95819). Type of assay: functional.
The target in assay [35] is Serine/threonine-protein kinase Nek2 (Homo sapiens, UniProt P51955). The class given is functional.
The target of assay [36] is Serine/threonine-protein kinase TAO1 (Homo sapiens, UniProt Q7L7X3). Type of assay: functional.
For assay [37], the target named is Tyrosine-protein kinase BTK (Homo sapiens, UniProt Q06187). The class given is functional.
The target in assay [38] is Calcium/calmodulin-dependent protein kinase type II subunit alpha (Homo sapiens, UniProt Q9UQM7). Description: Navigating the Kinome. Panel member name: CAMK2A. The class given is functional.
The target in assay [39] is Vascular endothelial growth factor receptor 1 (Homo sapiens, UniProt P17948). Type of assay: functional.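 Further: measured within a kinome-wide profiling panel, FLT1 as the panel member.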

T4 sequence (P49840 whole entry): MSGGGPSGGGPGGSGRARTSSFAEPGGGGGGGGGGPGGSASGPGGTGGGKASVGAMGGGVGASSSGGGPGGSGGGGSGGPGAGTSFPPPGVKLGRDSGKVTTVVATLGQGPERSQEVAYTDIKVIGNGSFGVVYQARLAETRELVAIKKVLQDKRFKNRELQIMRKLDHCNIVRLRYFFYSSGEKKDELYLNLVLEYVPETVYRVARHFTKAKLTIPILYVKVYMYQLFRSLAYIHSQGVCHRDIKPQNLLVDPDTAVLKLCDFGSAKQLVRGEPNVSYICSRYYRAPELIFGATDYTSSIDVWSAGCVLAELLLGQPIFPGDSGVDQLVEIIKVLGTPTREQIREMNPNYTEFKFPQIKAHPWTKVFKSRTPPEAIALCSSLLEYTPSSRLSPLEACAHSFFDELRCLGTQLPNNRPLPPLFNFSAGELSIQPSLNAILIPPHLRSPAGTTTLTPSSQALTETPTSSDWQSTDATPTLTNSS
Sequence of Casein kinase I isoform alpha (P48729 whole entry, canonical isoform): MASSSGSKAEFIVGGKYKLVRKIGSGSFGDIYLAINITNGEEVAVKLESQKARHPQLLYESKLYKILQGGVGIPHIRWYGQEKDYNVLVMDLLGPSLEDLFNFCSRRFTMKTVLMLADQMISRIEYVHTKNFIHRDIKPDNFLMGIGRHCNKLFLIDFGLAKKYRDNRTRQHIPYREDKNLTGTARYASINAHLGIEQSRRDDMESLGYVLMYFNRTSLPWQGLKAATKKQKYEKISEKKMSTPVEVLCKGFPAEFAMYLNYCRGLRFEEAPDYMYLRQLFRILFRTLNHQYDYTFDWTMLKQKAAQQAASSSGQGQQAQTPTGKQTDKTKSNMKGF
Sequence of Platelet-derived growth factor receptor alpha (P16234 whole entry): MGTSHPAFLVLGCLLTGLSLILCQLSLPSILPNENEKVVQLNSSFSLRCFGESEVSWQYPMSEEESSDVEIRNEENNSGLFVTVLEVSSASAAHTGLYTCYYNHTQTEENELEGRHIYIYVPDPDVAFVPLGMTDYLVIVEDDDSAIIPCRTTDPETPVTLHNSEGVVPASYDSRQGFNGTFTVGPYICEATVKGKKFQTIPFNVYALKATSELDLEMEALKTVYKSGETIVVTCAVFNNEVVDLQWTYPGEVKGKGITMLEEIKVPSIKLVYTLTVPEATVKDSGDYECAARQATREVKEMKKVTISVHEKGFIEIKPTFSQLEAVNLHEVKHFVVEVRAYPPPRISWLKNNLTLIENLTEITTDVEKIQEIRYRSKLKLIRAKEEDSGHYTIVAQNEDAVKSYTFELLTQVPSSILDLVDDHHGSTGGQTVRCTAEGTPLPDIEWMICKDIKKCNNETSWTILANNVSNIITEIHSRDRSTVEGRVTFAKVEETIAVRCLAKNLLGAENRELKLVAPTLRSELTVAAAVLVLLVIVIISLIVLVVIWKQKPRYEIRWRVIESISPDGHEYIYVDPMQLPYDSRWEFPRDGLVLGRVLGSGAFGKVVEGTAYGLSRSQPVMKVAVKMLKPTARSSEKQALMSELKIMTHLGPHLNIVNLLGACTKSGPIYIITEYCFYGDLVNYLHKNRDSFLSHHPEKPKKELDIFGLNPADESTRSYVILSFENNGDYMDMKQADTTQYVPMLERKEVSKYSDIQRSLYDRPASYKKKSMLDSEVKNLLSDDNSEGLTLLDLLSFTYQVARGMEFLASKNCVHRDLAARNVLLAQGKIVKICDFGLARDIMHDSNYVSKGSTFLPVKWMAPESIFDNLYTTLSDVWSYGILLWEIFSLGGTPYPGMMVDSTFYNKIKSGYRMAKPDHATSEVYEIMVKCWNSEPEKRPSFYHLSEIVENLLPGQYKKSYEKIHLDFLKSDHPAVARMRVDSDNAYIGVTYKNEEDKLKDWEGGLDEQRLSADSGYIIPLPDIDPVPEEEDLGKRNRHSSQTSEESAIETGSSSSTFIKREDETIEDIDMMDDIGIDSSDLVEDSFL
Sequence of Calcium/calmodulin-dependent protein kinase type II subunit alpha (Q9UQM7 whole entry): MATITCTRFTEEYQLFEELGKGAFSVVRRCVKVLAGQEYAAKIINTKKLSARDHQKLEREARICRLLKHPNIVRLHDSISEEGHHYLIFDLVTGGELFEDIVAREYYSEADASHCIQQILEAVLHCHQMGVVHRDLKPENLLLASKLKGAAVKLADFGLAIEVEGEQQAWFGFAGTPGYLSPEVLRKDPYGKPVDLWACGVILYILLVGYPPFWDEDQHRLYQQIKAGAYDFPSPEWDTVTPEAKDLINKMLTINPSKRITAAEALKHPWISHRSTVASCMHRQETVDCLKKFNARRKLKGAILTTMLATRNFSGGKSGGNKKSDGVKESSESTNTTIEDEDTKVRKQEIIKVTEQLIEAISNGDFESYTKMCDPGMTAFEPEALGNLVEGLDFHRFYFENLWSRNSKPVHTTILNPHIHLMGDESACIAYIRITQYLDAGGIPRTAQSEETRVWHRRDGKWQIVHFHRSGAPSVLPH
Sequence of Tyrosine-protein kinase JAK3 (P52333 whole entry): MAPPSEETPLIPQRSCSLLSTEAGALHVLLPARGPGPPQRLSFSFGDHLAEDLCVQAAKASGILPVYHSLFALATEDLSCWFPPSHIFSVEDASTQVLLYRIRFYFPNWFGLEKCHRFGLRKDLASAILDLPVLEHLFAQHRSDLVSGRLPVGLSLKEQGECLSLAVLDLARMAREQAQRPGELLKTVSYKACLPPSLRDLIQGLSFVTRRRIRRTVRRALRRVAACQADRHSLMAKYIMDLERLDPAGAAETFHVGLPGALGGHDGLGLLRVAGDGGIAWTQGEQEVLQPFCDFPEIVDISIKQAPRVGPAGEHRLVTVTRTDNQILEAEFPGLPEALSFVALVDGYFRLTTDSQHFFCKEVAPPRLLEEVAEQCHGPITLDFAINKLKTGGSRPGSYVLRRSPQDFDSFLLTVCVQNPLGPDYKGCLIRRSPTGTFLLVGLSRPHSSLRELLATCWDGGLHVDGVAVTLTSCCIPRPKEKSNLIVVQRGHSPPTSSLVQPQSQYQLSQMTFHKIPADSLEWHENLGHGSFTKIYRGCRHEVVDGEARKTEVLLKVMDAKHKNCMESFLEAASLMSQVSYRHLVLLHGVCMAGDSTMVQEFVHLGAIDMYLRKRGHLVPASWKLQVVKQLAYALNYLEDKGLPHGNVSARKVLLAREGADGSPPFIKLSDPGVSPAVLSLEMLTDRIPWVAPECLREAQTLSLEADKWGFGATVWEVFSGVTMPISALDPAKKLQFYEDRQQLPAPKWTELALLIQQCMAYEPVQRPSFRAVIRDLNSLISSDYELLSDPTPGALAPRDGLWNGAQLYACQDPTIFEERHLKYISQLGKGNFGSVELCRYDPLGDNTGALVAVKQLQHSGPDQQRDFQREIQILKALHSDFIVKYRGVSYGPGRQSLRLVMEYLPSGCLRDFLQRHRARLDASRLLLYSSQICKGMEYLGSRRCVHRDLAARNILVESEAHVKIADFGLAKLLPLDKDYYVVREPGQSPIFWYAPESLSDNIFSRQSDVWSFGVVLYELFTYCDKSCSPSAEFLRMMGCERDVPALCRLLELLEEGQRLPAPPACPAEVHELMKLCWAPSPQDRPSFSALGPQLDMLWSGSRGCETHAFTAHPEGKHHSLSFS
Sequence of Serine/threonine-protein kinase Chk1 (O14757 whole entry): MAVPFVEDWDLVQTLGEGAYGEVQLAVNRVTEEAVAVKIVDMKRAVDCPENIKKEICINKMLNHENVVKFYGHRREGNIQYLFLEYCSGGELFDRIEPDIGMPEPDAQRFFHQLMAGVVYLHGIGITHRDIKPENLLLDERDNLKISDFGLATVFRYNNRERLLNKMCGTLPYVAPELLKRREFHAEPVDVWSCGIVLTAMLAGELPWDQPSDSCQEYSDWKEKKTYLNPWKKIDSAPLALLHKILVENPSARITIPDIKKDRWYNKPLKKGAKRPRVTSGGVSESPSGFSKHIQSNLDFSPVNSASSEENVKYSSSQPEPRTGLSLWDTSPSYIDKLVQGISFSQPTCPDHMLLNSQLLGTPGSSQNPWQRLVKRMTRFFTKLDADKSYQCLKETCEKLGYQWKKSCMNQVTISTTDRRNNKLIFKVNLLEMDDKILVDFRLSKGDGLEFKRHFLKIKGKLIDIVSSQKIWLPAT
Sequence of Serine/threonine-protein kinase PAK 4 (O96013 whole entry): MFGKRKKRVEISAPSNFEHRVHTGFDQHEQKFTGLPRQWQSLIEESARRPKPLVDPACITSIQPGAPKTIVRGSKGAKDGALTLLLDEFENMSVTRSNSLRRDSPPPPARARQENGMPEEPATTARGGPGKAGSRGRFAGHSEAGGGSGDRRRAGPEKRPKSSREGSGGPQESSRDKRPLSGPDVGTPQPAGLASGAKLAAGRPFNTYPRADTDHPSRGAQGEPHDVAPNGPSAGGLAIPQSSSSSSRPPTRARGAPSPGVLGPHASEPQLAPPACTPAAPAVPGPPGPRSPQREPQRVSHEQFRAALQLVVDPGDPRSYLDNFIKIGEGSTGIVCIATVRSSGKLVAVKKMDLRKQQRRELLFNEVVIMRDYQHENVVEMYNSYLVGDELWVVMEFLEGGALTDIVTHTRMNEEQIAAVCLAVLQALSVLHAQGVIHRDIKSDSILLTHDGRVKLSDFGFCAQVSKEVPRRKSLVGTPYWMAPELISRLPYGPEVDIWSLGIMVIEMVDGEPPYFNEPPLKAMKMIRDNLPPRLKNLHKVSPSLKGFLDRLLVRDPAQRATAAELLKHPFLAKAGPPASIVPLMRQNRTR
Sequence of Mitogen-activated protein kinase 14 (Q16539 whole entry): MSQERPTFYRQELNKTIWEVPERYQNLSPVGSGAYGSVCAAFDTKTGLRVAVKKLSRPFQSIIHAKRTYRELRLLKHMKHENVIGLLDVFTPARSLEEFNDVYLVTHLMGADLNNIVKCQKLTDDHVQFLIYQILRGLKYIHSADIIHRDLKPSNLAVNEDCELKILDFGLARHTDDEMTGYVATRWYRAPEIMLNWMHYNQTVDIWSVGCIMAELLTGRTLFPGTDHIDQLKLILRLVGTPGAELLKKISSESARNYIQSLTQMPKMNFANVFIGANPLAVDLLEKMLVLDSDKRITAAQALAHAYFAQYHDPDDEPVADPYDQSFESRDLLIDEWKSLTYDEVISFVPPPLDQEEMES

With `CCN(CC)c1ccc(/C=C/C(=O)c2ccc(Br)cc2)cc1`, the EC50 in assay [1] is 13.8 µM (inconclusive); in assay [2], 13.5 µM (inconclusive). Moreover, the IC50 on Beta-lactamase [3] is 11 µM (inactive); on Beta-lactamase [4], 3.09 µM (active); on Beta Lactamase it was 3.82 µM (active); in the assay with CHO it was > 49.7 µM (inactive).
For the molecule `CN(Cc1ccc(F)cc1)C(=O)c1sccc1-c1ccccc1`, the concentration giving a half-maximal response (EC50) in [5] was 18.2 µM (active).
With `O=C(CN1C(=O)CCC1=O)Nc1cccc2c1C(=O)NC2=O`, the results for the AC50 in [6], in assay [7] and in assay [8] were 0.261 µM (active), 0.459 µM (active) and 20.2 µM (active), respectively.
Consider `CCN1c2cc(N)ccc2-c2ccc(N)cc2C1(O)c1ccccc1` (stereo not drawn), for which the Ki in [9] is > 3.98 µM (inactive); in assay [10], 2 µM (active); in assay [11], 2.51 µM (active); in assay [12], > 5.01 µM (inactive); on Aurora kinase B, > 3.98 µM (inactive); in [13], > 6.31 µM (inactive). For the same molecule, the Ki is > 5.01 µM (inactive) in [14]; > 3.98 µM (inactive) in assay [15]; 3.16 µM (active) in assay [16]; > 6.31 µM (inactive) in assay [17]; > 6.31 µM (inactive) in assay [18]; 1.26 µM (active) in [19]. The Ki in assay [20] was 2.51 µM (active); in assay [21], > 3.98 µM (inactive); in assay [22] it was 0.398 µM (active); in assay [23], > 6.31 µM (inactive); in assay [24], 3.98 µM (active); in assay [25], > 3.98 µM (inactive). The Ki at Activin receptor type-1 was > 3.98 µM (inactive); in [26], > 3.98 µM (inactive); in assay [27], > 3.98 µM (inactive); in assay [28] it was 2 µM (active); in assay [29] it was > 5.01 µM (inactive); in assay [30], 2 µM (active). Besides, the Ki in [31] was > 3.98 µM (inactive); in [32], 2 µM (active); in [33], 0.794 µM (active); in assay [34] it was 3.16 µM (active); in [35], 2 µM (active); in [36], 3.16 µM (active). In addition, the inhibition constant (Ki) in assay [37] was 3.98 µM (active); in [38], > 3.98 µM (inactive); in [39] it was 3.16 µM (active).
